{"source": "patent US10300155B2", "about": "“Alpha-synuclein ligands” (Washington University, priority 2015, dated 2019)", "key": {"α-synuclein fibrils [1]": {"biological_target": "T1, α-synuclein fibrils (Homo sapiens, UniProt P37840)", "T1 construct": "made in house; host or cells: E. coli BL21(DE3)RIL", "test": "ThT saturation binding to α-synuclein fibrils (Example 116)", "conditions": "saturation curve", "experimental": "The mixture was incubated at room temperature for 1 hour on the shaking plate. The reaction plate was scanned by the excitation wavelength range from 430 to 465 nm. The maximum excitation wavelength (λex) was determined according to the fluorescent intensity-excitation wavelength curve. At (λex), the emission wavelength was scanned to get maximum emission wavelength (λem).\nThe mixture was incubated at room temperature for 1 hour on the shaking plate. The fluorescent intensity for each cell was measured by the fluorescence reader at λex and λem."}, "α-synuclein fibrils [2]": {"biological_target": "T1, α-synuclein fibrils", "test": "Thioflavin T competition assay (Example 130, Table 9), α-synuclein fibrils", "type": "binding", "experimental": "Freshly transformed BL21 colonies were inoculated into 2 L baffled flasks containing 250 ml sterilized TB (1.2% bactotryptone, 2.4% yeast extract, 0.4% glycerol, 0.17 M KH2PO4, 0.72 M K2HPO4) with 50 μg/ml ampicillin, and incubated overnight at 37° C. with shaking.\n(§1) Competition assays used a fixed concentration of α-syn, Aβ, or tau fibrils (1 μM), consisting of 3 μM, 50 nM and 4 μM of ThioflavinT respectively. […] To optimize the determination of selectivity, assays for all three fibril species were set up in parallel using a common set of intermediate compound dilutions for each analog. Reactions were incubated at room temperature for 1.5 h before quantifying bound ligand as described above for the saturation binding assay. […] All data points were performed in triplicate. Nonspecific fluorescence was measured in parallel reactions containing ThioT plus each concentration of competitor but no fibrils, and these measurements were subtracted from the reactions with fibrils to yield fibril-specific fluorescence. Data were analyzed using Graphpad. Prism software (version 4.0) to obtain EC50 values by fitting the data to the equation Y=bottom+(top-bottom)/(1+10^(x−log EC50))."}, "α-synuclein fibrils [3]": {"biological_target": "T1, α-synuclein fibrils", "test": "Radioligand binding assay with α-synuclein fibrils (Table 8)"}, "PD Tissue": {"biological_target": "PD Tissue", "test": "Radioligand saturation binding, PD postmortem brain tissue", "set-up": "species or system human", "conditions": "brain tissue homogenate", "source_text": "(§2) Brain tissue samples were selected from an autopsy case series of patients evaluated for parkinsonism by movement disorders specialists at the Movement Disorders Center of Washington University School of Medicine in St. Louis. The clinical diagnosis of idiopathic PD was based on modified United Kingdom Parkinson's Disease Society Brain Bank clinical diagnostic criteria with clear clinical response to levodopa [Hughes, A. J., et al, “Accuracy of clinical diagnosis of idiopathic Parkinson's disease: a clinico-pathological study of 100 cases,” 1992, J. Neurol. Neurosurg. Psychiatry, 55:181-184]. Dementia was determined by a movement disorders specialist based on clinical assessment of cognitive dysfunction sufficiently severe to impair activities of daily living, with further evaluation of cognitive impairment using the AD8 and Mini-Mental Status Exam (MMSE) [Galvin, J. E., et al., “The AD8: a brief informant interview to detect dementia,” 2005, Neurology 65:559-564; Folstein, M. F., et al., ““Mini-mental state”. A practical method for grading the cognitive state of patients for the clinician,” 1975, J. Psychiatr Res, 12:189-198]. LB stage was assessed at autopsy using a PD staging scale (range: 0, 1-6) [Braak, H., et al., “Stages in the development of Parkinson's disease-related pathology,” 2004, Cell Tissue Res., 318:121-134]. PD cases were selected based on a clinical diagnosis of PD plus dementia, Braak LB stage 5-6 pathology, and the absence of significant Aβ or tau pathology determined by immunohistochemistry. Control cases were selected based on the absence of α-synuclein, Aβ and tau pathology. Samples were used from both male and female subjects.\n(§3) Grey matter was isolated from frozen postmortem frontal cortex tissue by dissection with a scalpel. To prepare insoluble fractions, dissected tissue was sequentially homogenized in four buffers (3 ml/g wet weight of tissue) with glass Dounce tissue grinders (Kimble): 1) High salt (HS) buffer: 50 mM Tris-HCl pH 7.5, 750 mM NaCl, 5 mM EDTA; 2) HS buffer with 1% Triton X-100; 3) HS buffer with 1% Triton X-100 and 1 M sucrose; and 4) phosphate buffered saline (PBS). Homogenates were centrifuged at 100,000×g after each homogenization step and the pellet was resuspended and homogenized in the next buffer in the sequence. For comparison in initial binding studies, crude tissue homogenates were also prepared by homogenization of tissue in only PBS. […]\n(§4) Saturation binding assays combine binding substrate and varying radioligand concentrations, with or without the addition of a high concentration (50-100 times the estimated Kd) of a competitor compound to determine nonspecific binding. […] Specific binding is determined by subtracting nonspecific binding from total binding. […]"}, "Aβ1-42 fibrils": {"biological_target": "T2, Aβ1-42 fibrils (Homo sapiens, UniProt P05067)", "T2 construct": "Synthetic Aβ42 peptide (1 mg) (Bachem, Torrance, Calif.); purchased Bachem, Torrance, Calif; host or cells: synthetic peptide", "T2 sequence (P05067 672-713 limits assumed)": "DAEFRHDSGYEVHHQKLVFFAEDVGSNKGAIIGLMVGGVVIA", "test": "Radioligand binding assay with Aβ1-42 fibrils (Table 8)", "quoted_text": "Synthetic Aβ42 peptide (1 mg) (Bachem, Torrance, Calif.) was first dissolved in 50 μl DMSO. An additional 925 μl of mQ-H2O was added. Finally, 25 μl 1M Tris-HCl pH 7.6 was added to bring the final peptide concentration to 222 μM (1 mg/ml) [16]. The dissolved peptide was incubated for 30 h at 37° C. with shaking at 1000 rpm in an Eppendorf Thermomixer. Fibril formation was confirmed by ThioT fluorescence. To determine the concentration of fibrils, the fibril reaction mix was centrifuged at 15,000×g for 15 min to separate fibrils from monomer. The concentration of Aβ monomer in the supernatant was determined in a BCA protein assay using a BSA standard curve that contained DMSO at a percentage equivalent to the samples. […]\nA fixed concentration (1 μM) of α-syn, Aβ, or tau fibrils were incubated for 2 h at 37° C. with increasing concentrations of ThioT in 30 mM Tris-HCl pH 7.4, 0.1% BSA in a reaction volume of 150 μl. Nonspecific binding was determined in a duplicate set of binding reactions containing the same concentration of ThioT with no fibrils. Fluorescence was determined in a Biotek plate reader using a 440/30 excitation filter and a 485/20 emission filter. […] The dissociation constant (Kd) and the maximal number of binding sites (Bmax) values were determined by fitting the data to the equation Y=Bmax*X/(X+Kd) by nonlinear regression using Graphpad Prism software (version 4.0)."}, "AD Tissue": {"biological_target": "AD Tissue", "test": "Radioligand saturation binding, AD postmortem brain tissue", "set-up": "species or system human", "conditions": "brain tissue homogenate"}, "tau fibrils [4]": {"biological_target": "T3, tau fibrils (Homo sapiens, UniProt P10636)", "T3 sequence (P10636 560-692)": "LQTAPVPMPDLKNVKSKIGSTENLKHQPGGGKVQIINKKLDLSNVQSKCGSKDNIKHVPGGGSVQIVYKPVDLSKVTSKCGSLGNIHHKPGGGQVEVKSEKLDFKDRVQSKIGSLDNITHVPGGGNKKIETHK", "test": "Radioligand binding assay with tau fibrils (Table 8)", "set-up": "made in house; host or cells: E. coli BL21(DE3)RIL"}, "Aβ fibrils": {"biological_target": "Aβ fibrils (Homo sapiens, UniProt P05067)", "sequence (P05067 672-713 limits assumed)": "as the sequence (P05067 672-713 limits assumed) above", "test": "Thioflavin T competition assay (Example 130, Table 9), Aβ fibrils", "type": "binding", "set-up": "Synthetic Aβ42 peptide (1 mg) (Bachem, Torrance, Calif.); purchased Bachem, Torrance, Calif; host or cells: synthetic peptide", "experimental": "An additional 925 μl of mQ-H2O was added. […] Fibril formation was confirmed by ThioT fluorescence.\nas §1"}, "tau fibrils [5]": {"biological_target": "T3, tau fibrils", "test": "Thioflavin T competition assay (Example 130, Table 9), tau fibrils", "type": "binding", "set-up": "made in house; host or cells: E. coli BL21(DE3)RIL", "experimental": "Recombinant tau protein was produced in E. coli.\nas §1"}, "Control Tissue": {"biological_target": "Control Tissue", "test": "Radioligand saturation binding, control postmortem brain tissue", "set-up": "species or system human", "conditions": "brain tissue homogenate", "source_text": "as §2, §3, §4"}}, "note": "Values joined by “and” are separate entries in the source; they are usually repeats but may differ in a detail not shown here. Equal entries are not always repeated. Where two headings read alike, the source gives them in different places."}
{"smiles": "Cc1ccc2c(c1)sc(-c1ccc(N(C)C)cc1)[n+]2C", "note": "[ThT, Thioflavin T]", "values": [{"measurement": "Bmax for ThioT binding to fibrils", "setting": "α-synuclein fibrils [1]", "value": 5672, "unit": "afu"}]}
{"smiles": "COc1cc(/C=C/c2ccc3cc(OCCF)ccc3n2)ccn1", "note": "[[^18F]TZ-36-148]", "values": [{"measurement": "EC50", "setting": "α-synuclein fibrils [2]; average, read-out: α-synuclein EC50 (avg)", "value": 46.8, "unit": "nM"}, {"measurement": "Ki", "setting": "α-synuclein fibrils [2]; average, read-out: α-synuclein Ki (avg)", "value": 18, "unit": "nM"}, {"measurement": "EC50", "setting": "α-synuclein fibrils [2]; individual determinations, read-out: α-synuclein EC50", "value": "44.5 nM and 49 nM"}, {"measurement": "Ki", "setting": "α-synuclein fibrils [2]; individual determinations, read-out: α-synuclein Ki", "value": "17 nM and 19 nM"}, {"measurement": "Kd", "setting": "α-synuclein fibrils [3]", "value": 90, "unit": "nM"}, {"measurement": "Kd", "setting": "PD Tissue", "value": 167, "unit": "nM"}, {"measurement": "Kd", "setting": "Aβ1-42 fibrils", "value": 98, "unit": "nM"}, {"measurement": "Kd", "setting": "AD Tissue", "value": 83, "unit": "nM"}, {"measurement": "Kd", "setting": "tau fibrils [4]", "value": 51, "unit": "nM"}, {"measurement": "EC50", "setting": "Aβ fibrils; average, read-out: Aβ-fibrils EC50 (avg)", "value": 448, "unit": "nM"}, {"measurement": "Ki", "setting": "Aβ fibrils; average, read-out: Aβ-fibrils Ki (avg)", "value": 168, "unit": "nM"}, {"measurement": "EC50", "setting": "Aβ fibrils; individual determinations, read-out: Aβ-fibrils EC50", "value": "435 nM and 462 nM"}, {"measurement": "Ki", "setting": "Aβ fibrils; individual determinations, read-out: Aβ-fibrils Ki", "value": "163 nM and 173 nM"}, {"measurement": "EC50", "setting": "tau fibrils [5]; average, read-out: Tau fibrils EC50 (avg)", "value": 278, "unit": "nM"}, {"measurement": "Ki", "setting": "tau fibrils [5]; individual determinations", "value": "124 nM and 102 nM"}, {"measurement": "EC50", "setting": "tau fibrils [5]; individual determinations, read-out: Tau fibrils EC50", "value": "305 nM and 251 nM"}, {"measurement": "Kd", "setting": "Control Tissue", "value": 477, "unit": "nM"}]}
